According to ChEMBL document CHEMBL1137182, “Ligand conformation has a definitive effect on 5-HT1A and serotonin reuptake affinity” (Bioorg Med Chem Lett, 2004):

Columns and labels:
[1] = biological target: Sodium-dependent serotonin transporter (Homo sapiens, UniProt P31645); assay: Inhibitory activity against human- serotonin reuptake transmitter using [3H]-citalopram as a radioligand
[2] = Inhibitory activity against 5-hydroxytryptamine receptor 1A using (+/-)-[3H]-8-hydroxydipropylaminotetralin; set-up: species or system Homo sapiens

Sodium-dependent serotonin transporter, sequence (P31645 whole entry): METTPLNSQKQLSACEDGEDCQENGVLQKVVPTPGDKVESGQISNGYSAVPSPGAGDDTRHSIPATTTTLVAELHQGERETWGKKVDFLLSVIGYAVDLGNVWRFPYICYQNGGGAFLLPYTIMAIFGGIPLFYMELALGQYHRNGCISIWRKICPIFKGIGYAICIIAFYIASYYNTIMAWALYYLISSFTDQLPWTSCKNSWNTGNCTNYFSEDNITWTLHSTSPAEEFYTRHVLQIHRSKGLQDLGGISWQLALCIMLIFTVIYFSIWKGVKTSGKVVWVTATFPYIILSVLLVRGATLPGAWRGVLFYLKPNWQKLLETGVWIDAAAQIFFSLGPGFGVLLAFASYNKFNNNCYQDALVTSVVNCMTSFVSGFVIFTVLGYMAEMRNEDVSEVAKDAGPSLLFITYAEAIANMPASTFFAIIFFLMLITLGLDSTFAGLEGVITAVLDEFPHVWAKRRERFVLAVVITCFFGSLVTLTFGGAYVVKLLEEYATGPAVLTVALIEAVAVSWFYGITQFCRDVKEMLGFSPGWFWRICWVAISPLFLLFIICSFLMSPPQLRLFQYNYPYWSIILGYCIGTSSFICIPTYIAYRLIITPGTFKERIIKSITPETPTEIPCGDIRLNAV

For `Oc1nc2cc3c(cc2c2c1[C@@H](N1CCN(Cc4ccccc4I)CC1)CCC2)OCO3`, the IC50 [1] was 23 nM and the IC50 [2] was > 1000 nM.

`O=C1O[C@]2(CC[C@@H](N3CCC(Cc4ccccc4F)CC3)CC2)c2ccc3c(c21)OCCO3` showed an IC50 [1] of 480 nM and an IC50 [2] of 12 nM.

`COc1ccc(Br)c(CC2CCN([C@H]3CC[C@]4(CC3)OC(=O)c3c5c(ccc34)OCO5)CC2)c1` gave an IC50 [1] of 91 nM and an IC50 [2] of 2.4 nM.

`O=C1O[C@]2(CC[C@@H](N3CCC(Cc4cc(Cl)ccc4Cl)CC3)CC2)c2ccc3c(c21)OCO3` gave an IC50 [1] of 92 nM and an IC50 [2] of 2.3 nM.

Work on `O=C1O[C@]2(CC[C@@H](N3CCC(Cc4cc(F)ccc4F)CC3)CC2)c2ccc3c(c21)OCO3` yielded an IC50 [1] of 250 nM and an IC50 [2] of 22 nM.

In the case of `O=C1O[C@]2(CC[C@@H](N3CCN(Cc4ccccc4I)CC3)CC2)c2ccc3c(c21)OCO3`, the IC50 [1] is reported as 48 nM and the IC50 [2] is reported as 9.6 nM.

`COc1ccc(F)c(CC2CCN([C@H]3CC[C@]4(CC3)OC(=O)c3c5c(ccc34)OCO5)CC2)c1` showed an IC50 [1] of 400 nM.

In the case of `O=C1O[C@]2(CC[C@@H](N3CCC(Cc4ccccc4Cl)CC3)CC2)c2ccc3c(c21)OCCO3`, the IC50 [1] is reported as 100 nM and the IC50 [2] is reported as 19 nM.

With `O=C1O[C@]2(CC[C@@H](N3CCC(Cc4ccccc4Br)CC3)CC2)c2ccc3c(c21)OCO3` the IC50 [1] was 45 nM and the IC50 [2] was 9.6 nM.

Work on `O=C1O[C@]2(CC[C@@H](N3CCC(Cc4cc(F)ccc4Br)CC3)CC2)c2ccc3c(c21)OCO3` yielded an IC50 [1] of 82 nM and an IC50 [2] of 14 nM.

Work on `COc1ccc(F)c(CC2CCN([C@H]3CC[C@]4(CC3)OC(=O)c3c5c(ccc34)OCCO5)CC2)c1` yielded an IC50 [1] of 430 nM and an IC50 [2] of 11 nM.

With `O=C1O[C@]2(CC[C@@H](N3CCC(Cc4ccccc4C(F)(F)F)CC3)CC2)c2ccc3c(c21)OCCO3` the IC50 [1] was 510 nM and the IC50 [2] was 43 nM.

Compound `O=C1O[C@]2(CC[C@@H](N3CCC(Cc4ccccc4C(F)(F)F)CC3)CC2)c2ccc3c(c21)OCO3` has an IC50 [1] of 180 nM and an IC50 [2] of 67 nM.

For `O=C1O[C@]2(CC[C@@H](N3CCN(Cc4ccccc4I)CC3)CC2)c2ccc3c(c21)OCCO3`, the IC50 [1] was 54 nM and the IC50 [2] was 9.6 nM.

In the case of `O=C1O[C@]2(CC[C@@H](N3CCC(Cc4cc(F)ccc4Br)CC3)CC2)c2ccc3c(c21)OCCO3`, the IC50 [1] is reported as 77 nM and the IC50 [2] is reported as 11 nM.

With `O=C1O[C@]2(CC[C@@H](N3CCC(Cc4ccccc4Br)CC3)CC2)c2ccc3c(c21)OCCO3` the IC50 [1] was 73 nM and the IC50 [2] was 9.8 nM.

Compound `O=C1O[C@]2(CC[C@@H](N3CCC(Cc4cc(F)ccc4F)CC3)CC2)c2ccc3c(c21)OCCO3` has an IC50 [1] of 110 nM and an IC50 [2] of 14 nM.

`O=C1O[C@]2(CC[C@@H](N3CCC(Cc4ccccc4F)CC3)CC2)c2ccc3c(c21)OCO3` showed an IC50 [1] of 410 nM and an IC50 [2] of 14 nM.

For `COc1ccccc1CC1CCN([C@H]2CC[C@]3(CC2)OC(=O)c2c4c(ccc23)OCO4)CC1`, the IC50 [1] was 150 nM and the IC50 [2] was 6.7 nM.

In the case of `O=C1O[C@]2(CC[C@@H](N3CCC(Cc4ccccc4Cl)CC3)CC2)c2ccc3c(c21)OCO3`, the IC50 [1] is reported as 140 nM and the IC50 [2] is reported as 10 nM.

`COc1ccccc1CC1CCN([C@H]2CC[C@]3(CC2)OC(=O)c2c4c(ccc23)OCCO4)CC1` showed an IC50 [1] of 59 nM and an IC50 [2] of 4.3 nM.

With `Oc1nc2cc3c(cc2c2c1[C@@H](N1CCC(Cc4cc(F)ccc4F)CC1)CCC2)OCO3` (stereo in doubt; 3o) the IC50 [1] was 5 nM and the IC50 [2] was 440 nM.

With `Oc1nc2cc3c(cc2c2c1[C@@H](N1CCC(Cc4cc(F)ccc4F)CC1)CCC2)OCO3` (stereo in doubt; 4o) the IC50 [1] was 14 nM and the IC50 [2] was 450 nM.
